Patent US20150197492A1, “NOVEL INDENO[1,2-c]QUINOLIN-11-ONE DERIVATIVES, PREPARATION METHOD AND APPLICATION THEREOF” (National Defense Medical Center, priority 2014, published 2015)

Assays:
Assay in all cases: cells
Type in all cases: cell-based
[1] = system: SK-MEL-28
[2] = system: UACC-257
[3] = system: UACC-62
[4] = system: IGROV1
[5] = system: OVCAR-4
[6] = system: SK-OV-3
[7] = system: 786-0
[8] = system: A498
[9] = system: ACHN
[10] = system: RXF 393; conditions: RXF 393 (Renal Cancer), 10 μM, 48 hours
[11] = system: SN12C
[12] = system: UO-31
[13] = system: MCF7
[14] = system: T-47D
[15] = system: MDA-MB-468

SMILES: CCN(CC)CCNc1nc2ccccc2c2c1-c1ccc(Cl)cc1C2=O [SJ-3, 6-(2-(Diethylamino)ethylamino)-9-chloro-11H-indeno[1,2-c]quinolin-11-one]
- TGI ([1]; Melanoma SK-MEL-28): 3.21 µM
- growth percentage ([1]; SK-MEL-28 (Melanoma), 10 μM, 48 hours): 87.40%
- GI50 ([2]; Homo sapiens, Melanoma UACC-257): 21.2 µM
- CC50 ([2]; Homo sapiens, Melanoma UACC-257, read-out: LC50 (the source's name)): 6.37 µM
- TGI ([2]; Melanoma UACC-257): 3.39 µM
- growth percentage ([2]; UACC-257 (Melanoma), 10 μM, 48 hours): 92.18%
- GI50 ([3]; Homo sapiens, Melanoma UACC-62): 14.8 µM
- CC50 ([3]; Homo sapiens, Melanoma UACC-62, read-out: LC50 (the source's name)): 6.68 µM
- TGI ([3]; Melanoma UACC-62): 3.31 µM
- growth percentage ([3]; UACC-62 (Melanoma), 10 μM, 48 hours): 99.56%
- GI50 ([4]; Homo sapiens, IGROV-1, Ovarian Cancer IGROV1): 11.2 µM
- CC50 ([4]; Homo sapiens, IGROV-1, Ovarian Cancer IGROV1, read-out: LC50 (the source's name)): 7.82 µM
- growth percentage ([4]; IGROV1 (Ovarian Cancer), 10 μM, 48 hours): 43.43%
- TGI ([4]; Ovarian Cancer IGROV1): 3.62 µM
- GI50 ([5]; Homo sapiens, Ovarian Cancer OVCAR-4): 2.99 µM
- CC50 ([5]; Homo sapiens, Ovarian Cancer OVCAR-4, read-out: LC50 (the source's name)): 5.68 µM
- growth percentage ([5]; OVCAR-4 (Ovarian Cancer), 10 μM, 48 hours): 52.50%
- TGI ([5]; Ovarian Cancer OVCAR-4): 2.79 µM
- GI50 ([6]; Homo sapiens, Ovarian Cancer SK-OV-3): 35.9 µM
- CC50 ([6]; Homo sapiens, Ovarian Cancer SK-OV-3, read-out: LC50 (the source's name)): 17.2 µM
- TGI ([6]; Ovarian Cancer SK-OV-3): 5.57 µM
- growth percentage ([6]; SK-OV-3 (Ovarian Cancer), 10 μM, 48 hours): 84.20%
- growth percentage ([7]; 786-0 (Renal Cancer), 10 μM, 48 hours): 74.13%
- GI50 ([7]; Homo sapiens, 786-0, Renal Cancer 786-O): 26.8 µM
- CC50 ([7]; Homo sapiens, 786-0, Renal Cancer 786-O, read-out: LC50 (the source's name)): 6.01 µM
- TGI ([7]; Renal Cancer 786-O): 3.29 µM
- growth percentage ([8]; A498 (Renal Cancer), 10 μM, 48 hours): 88.98%
- GI50 ([8]; Homo sapiens, Renal Cancer A498): 8.76 µM
- CC50 ([8]; Homo sapiens, Renal Cancer A498, read-out: LC50 (the source's name)): 50.8 µM
- TGI ([8]; Renal Cancer A498): 1.78 µM
- growth percentage ([9]; ACHN (Renal Cancer), 10 μM, 48 hours): 55.86%
- GI50 ([9]; Homo sapiens, Renal Cancer ACHN): 6.44 µM
- CC50 ([9]; Homo sapiens, Renal Cancer ACHN, read-out: LC50 (the source's name)): 5.89 µM
- TGI ([9]; Renal Cancer ACHN): 3.04 µM
- growth percentage [10]: 51.90%
- GI50 ([11]; Homo sapiens, Renal Cancer SN12C): 4.12 µM
- CC50 ([11]; Homo sapiens, Renal Cancer SN12C, read-out: LC50 (the source's name)): 6.16 µM
- TGI ([11]; Renal Cancer SN12C): 2.87 µM
- growth percentage ([11]; SN12C (Renal Cancer), 10 μM, 48 hours): 61.60%
- GI50 ([12]; Homo sapiens, Renal Cancer UO-31): 3.61 µM
- CC50 ([12]; Homo sapiens, Renal Cancer UO-31, read-out: LC50 (the source's name)): 6.48 µM
- TGI ([12]; Renal Cancer UO-31): 2.88 µM
- growth percentage ([12]; UO-31 (Renal Cancer), 10 μM, 48 hours): 25.86%
- TGI ([13]; Breast Cancer MCF7): 2.60 µM
- GI50 ([13]; Homo sapiens, Breast Cancer MCF7): 0.44 µM
- CC50 ([13]; Homo sapiens, Breast Cancer MCF7, read-out: LC50 (the source's name)): 5.54 µM
- growth percentage ([13]; MCF7 (Breast Cancer), 10 μM, 48 hours): 12.70%
- TGI ([14]; Breast Cancer T-47D): 3.56 µM
- GI50 ([14]; Homo sapiens, T47D, Breast Cancer T-47D): 17.8 µM
- CC50 ([14]; Homo sapiens, T47D, Breast Cancer T-47D, read-out: LC50 (the source's name)): 7.19 µM
- growth percentage ([14]; T-47D (Breast Cancer), 10 μM, 48 hours): 43.28%
- TGI ([15]; Breast Cancer MDA-MB-468): 3.07 µM
- GI50 ([15]; Homo sapiens, Breast Cancer MDA-MB-468): 1.71 µM
- growth percentage ([15]; MDA-MB-468 (Breast Cancer), 10 μM, 48 hours): 33.81%
